US20040019092A1, “Non-peptide somatostatin receptor ligands” (priority 2001, published 2004)

Columns and labels:
[1] = tested on: GH secretion; test: Unanesthetized estradiol primed male rats, oral by gavage: GH; assay type: in vivo, rat; settings: estradiol implant male rats, oral by gavage, 1 hour
Experimental: The inhibitory effect of the compounds on GH release may also be examined after oral application to male rats with oestradiol implants. This test is carried out as follows.
A loop (length 50 mmØ3 mm) of silastic with 50 mg of oestradiol is implanted under the dorsal skin of anaesthetized male OFA rats that have a weight of ca. 300 g. At various times (1 to 6 months later), these animals, in a fasted state, are used repeatedly for tests. The test substances are active in this test at doses from 0.1 to 5 mg/kg, when GH level in the blood serum is determined by radio-immunoassay 1 and 2 hours after oral administration.
(§1) Table 5 summarizes the results obtained in the estradiol primed male rats that received the compounds orally by gavage. These rats have stabilized elevated GH plasma levels as well as increased prolactin levels. In contrast to normal untreated rats, who's prolactin secretion is not sensitive to the inhibitory effect of somatostain, in these rats the prolactin secretion is inhibited to a similar degree as the GH secretion. Therefore, the inhibitory effect can be measured on 2 different parameters, GH and prolactin. The mean enteral absorption and activity of the respective compounds are shown.

[2] = tested on: prolactin secretion; test: Unanesthetized estradiol primed male rats, oral by gavage: prolactin; assay type: in vivo, rat; settings: estradiol implant male rats, oral by gavage, 1 hour; ø = no effect at this dose
Description: as §1

[3] = tested on: basal plasma levels of growth hormone, glucagon, insulin and glucose; test: Endocrine parameters in the Rhesus monkey after subcutaneous administration; assay type: in vivo
Experimental: Therefore, they were further investigated in the Rhesus monkey and their activity profile was determined. Using subcutaneous administration, they were characterized in this species, by measuring their effects on the basal plasma levels of growth hormone, glucagon, insulin as well changes in glucose levels.
Animals and blood sampling: Rhesus monkeys, fed on the previous day in the morning with fruits only, were placed, slightly anesthetized with ketamin (Ketalar©, Parke-Davis), in primate chairs and brought to the experimental room. A catheter, consisting of an in-dwelling cannula (Vasocan Braunüle, 20G, B. Braun Melsungen AG, D-Melsungen), an extension line made from PP 800/110/260/100 Portex© tubing and a special adapter between cannula and tubing with a minimal void volume, was placed in a saphenic vein. The total volume of this catheter was approximately 0.7 mL. The distal end was placed through a hole in the wall to the adjacent room in order to allow infusion and blood sampling without being noticed by the animal. The animals were monitored with a video system.
During the entire duration of the experiment an infusion of 5 to 10 mL/h of isotonic saline (NaCl 0.9% Braun, B. Braun Medical AG, CH-Emmenbrücke) containing heparin sodium 80 mg/L (Biochemie GMBH, A-Kundl) was maintained, using a roller pump (Vario-Perpex, Guldener, CH-Zürich). At each sampling time 1.5 mL (twice the void volume of the catheter) was taken in one syringe before collecting the actual blood sample of 2 mL in another syringe. The first 1.5 mL were reinfused immediately after the actual sample had been taken. The sample was mixed with 0.1 mL of a mixture containing EDTA (ethlenediaminetetraacetic acid tetrasodium Fluka, CH-Buchs) and aprotinin (Trasylol©, Bayer) resulting in final concentrations of 1.8 mg/mL and 1000 KIE/mL, respectively. The blood samples were kept on ice and spun in a cooled centrifuge. […]
Determinations: The blood levels of the hormones were determined by radioimmunoassay (RIA) using the appropriate antisera, antibodies, labels and standards, glucose by an enzymatic assay: […]

SMILES | GH 1 H ID50 [1] | MEAN ID50 (GH and prolactin) [1] | PROLACT 1 H ID50 [2] | inhibitory effects on hormone release ([3]; up to 1100 μg/kg) | dose levels necessary for inhibition of hormone release, times higher than Octreotride [3]
Cc1cccc2c(CC3C(=O)N(CCCCCN)C(=O)N3S(=O)(=O)c3ccc(Oc4ccc(O)c(Cl)c4)c(C#N)c3)c[nH]c12 (centres unmarked) [Compound 44] | 16 mg/kg | 16 mg/kg | ø10000 μg/kg | no consistent inhibitory effects | –
Cc1cccc2c(CC3C(=O)N(CCCCCN)C(=O)N3S(=O)(=O)c3ccc(Oc4ccc(O)cc4)c(CN)c3)c[nH]c12 (centres unmarked) [Compound 45] | 8 mg/kg | 11.313 mg/kg | 16 mg/kg | – | about 100 times
